Experiments:
Assay in all cases: relative viability (nuclei count vs DMSO), 5 days (fraction); higher = more cells survive
[1] = compound: COC1=C(C=C(C=C1)C2=CC3=NC=CN3C(=N2)NC4=C(C=CC=N4)C(=O)N)OC [BAY61-3606] + COc1cc2c(Oc3ccc(NC(=O)C4(C(=O)Nc5ccc(F)cc5)CC4)cc3F)ccnc2cc1OCCCN1CCOCC1 [Foretinib] (partner 0.25 µM)
In short: (§1)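 The day after seeding in 1536-well plates, lung cancer cell lines were treated by pin tool with a single drug, or with a fixed anchor-drug dose together with five library-drug doses (not always all listed) in √10 steps. After 5 days, a combined fix-and-stain solution (final 0.05% Triton X-100, 1% formaldehyde, 1 ug/ml Hoechst) was added. Nuclei counted on 4× images gave relative viability as treated counts over vehicle counts, reported as the median of duplicate plates.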

[2] = compound: COC1=C(C=C(C=C1)C2=CC3=NC=CN3C(=N2)NC4=C(C=CC=N4)C(=O)N)OC [BAY61-3606] + C[C@@H](Oc1cc(-c2cnn(C3CCNCC3)c2)cnc1N)c1c(Cl)ccc(F)c1Cl [Crizotinib] (partner 1 µM)
In short: as §1

[3] = compound: COC1=C(C=C(C=C1)C2=CC3=NC=CN3C(=N2)NC4=C(C=CC=N4)C(=O)N)OC [BAY61-3606] + C[C@]1(O)C[C@@H](c2nc(-c3ccc4ccc(-c5ccccc5)nc4c3)c3c(N)nccn32)C1 [Linsitinib] (partner 1 µM)
In short: as §1

[4] = compound: COc1cccc2c1C(=O)c1c(O)c3c(c(O)c1C2=O)C[C@@](O)(C(=O)CO)C[C@@H]3O[C@H]1C[C@H](N)[C@H](O)[C@H](C)O1 [Doxorubicin] + CS(=O)(=O)N1CCN(Cc2cc3nc(-c4cccc5[nH]ncc45)nc(N4CCOCC4)c3s2)CC1 [Pictilisib] (partner 1 µM)
In short: as §1

NCI-H1651
relative viability ([1]; first compound 0.02 µM): 0.886 | relative viability ([1]; first compound 0.06325 µM): 0.713 | relative viability ([1]; first compound 0.2 µM): 0.765 | relative viability ([1]; first compound 0.6325 µM): 0.88 | relative viability ([1]; first compound 2 µM): 0.739 | relative viability ([2]; first compound 0.02 µM): 0.882 | relative viability ([2]; first compound 0.06325 µM): 0.873 | relative viability ([2]; first compound 0.2 µM): 0.846 | relative viability ([2]; first compound 0.6325 µM): 0.869 | relative viability ([2]; first compound 2 µM): 0.777 | relative viability ([3]; first compound 0.02 µM): 0.908 | relative viability ([3]; first compound 0.06325 µM): 0.909 | relative viability ([3]; first compound 0.2 µM): 0.91 | relative viability ([3]; first compound 0.6325 µM): 1.12 | relative viability ([3]; first compound 2 µM): 0.823 | relative viability ([4]; first compound 0.001 µM): 0.608 | relative viability ([4]; first compound 0.003162 µM): 0.437 | relative viability ([4]; first compound 0.01 µM): 0.412 | relative viability ([4]; first compound 0.03162 µM): 0.138 | relative viability ([4]; first compound 0.1 µM): 0.107

BEN
relative viability ([1]; first compound 0.02 µM): 0.701 | relative viability ([1]; first compound 0.06325 µM): 0.69 | relative viability ([1]; first compound 0.2 µM): 0.723 | relative viability ([1]; first compound 0.6325 µM): 0.654 | relative viability ([1]; first compound 2 µM): 0.911 | relative viability ([2]; first compound 0.02 µM): 0.88 | relative viability ([2]; first compound 0.06325 µM): 0.748 | relative viability ([2]; first compound 0.2 µM): 1.1 | relative viability ([2]; first compound 0.6325 µM): 1.06 | relative viability ([2]; first compound 2 µM): 0.84 | relative viability ([3]; first compound 0.02 µM): 1.04 | relative viability ([3]; first compound 0.06325 µM): 0.805 | relative viability ([3]; first compound 0.2 µM): 1.06 | relative viability ([3]; first compound 0.6325 µM): 1.01 | relative viability ([3]; first compound 2 µM): 0.793 | relative viability ([4]; first compound 0.001 µM): 0.7 | relative viability ([4]; first compound 0.003162 µM): 0.509 | relative viability ([4]; first compound 0.01 µM): 0.546 | relative viability ([4]; first compound 0.03162 µM): 0.472 | relative viability ([4]; first compound 0.1 µM): 0.493

EMC-BAC-2
relative viability ([1]; first compound 0.02 µM): 1.1 | relative viability ([1]; first compound 0.06325 µM): 0.992 | relative viability ([1]; first compound 0.2 µM): 1.02 | relative viability ([1]; first compound 0.6325 µM): 1.11 | relative viability ([1]; first compound 2 µM): 0.738 | relative viability ([2]; first compound 0.02 µM): 0.775 | relative viability ([2]; first compound 0.06325 µM): 0.696 | relative viability ([2]; first compound 0.2 µM): 0.755 | relative viability ([2]; first compound 0.6325 µM): 0.817 | relative viability ([2]; first compound 2 µM): 0.573 | relative viability ([3]; first compound 0.02 µM): 0.837 | relative viability ([3]; first compound 0.06325 µM): 0.862 | relative viability ([3]; first compound 0.2 µM): 0.852 | relative viability ([3]; first compound 0.6325 µM): 0.876 | relative viability ([3]; first compound 2 µM): 0.833 | relative viability ([4]; first compound 0.001 µM): 0.685 | relative viability ([4]; first compound 0.003162 µM): 0.528 | relative viability ([4]; first compound 0.01 µM): 0.538 | relative viability ([4]; first compound 0.03162 µM): 0.477 | relative viability ([4]; first compound 0.1 µM): 0.338

LXF-289
relative viability ([1]; first compound 0.02 µM): 0.966 | relative viability ([1]; first compound 0.06325 µM): 0.971 | relative viability ([1]; first compound 0.2 µM): 0.978 | relative viability ([1]; first compound 0.6325 µM): 0.988 | relative viability ([1]; first compound 2 µM): 0.944 | relative viability ([2]; first compound 0.02 µM): 0.753 | relative viability ([2]; first compound 0.06325 µM): 0.82 | relative viability ([2]; first compound 0.2 µM): 0.795 | relative viability ([2]; first compound 0.6325 µM): 0.821 | relative viability ([2]; first compound 2 µM): 0.81 | relative viability ([3]; first compound 0.02 µM): 0.906 | relative viability ([3]; first compound 0.06325 µM): 1.02 | relative viability ([3]; first compound 0.2 µM): 0.948 | relative viability ([3]; first compound 0.6325 µM): 1.05 | relative viability ([3]; first compound 2 µM): 0.569 | relative viability ([4]; first compound 0.001 µM): 0.698 | relative viability ([4]; first compound 0.003162 µM): 0.772 | relative viability ([4]; first compound 0.01 µM): 0.716 | relative viability ([4]; first compound 0.03162 µM): 0.783 | relative viability ([4]; first compound 0.1 µM): 0.745

ABC-1
relative viability ([1]; first compound 0.02 µM): 1.19 | relative viability ([1]; first compound 0.06325 µM): 0.973 | relative viability ([1]; first compound 0.2 µM): 0.971 | relative viability ([1]; first compound 0.6325 µM): 1.11 | relative viability ([1]; first compound 2 µM): 0.907 | relative viability ([2]; first compound 0.02 µM): 0.999 | relative viability ([2]; first compound 0.06325 µM): 0.978 | relative viability ([2]; first compound 0.2 µM): 0.992 | relative viability ([2]; first compound 0.6325 µM): 1.02 | relative viability ([2]; first compound 2 µM): 0.821 | relative viability ([3]; first compound 0.02 µM): 0.774 | relative viability ([3]; first compound 0.06325 µM): 0.948 | relative viability ([3]; first compound 0.2 µM): 0.879 | relative viability ([3]; first compound 0.6325 µM): 0.827 | relative viability ([3]; first compound 2 µM): 0.631 | relative viability ([4]; first compound 0.001 µM): 0.849 | relative viability ([4]; first compound 0.003162 µM): 0.642 | relative viability ([4]; first compound 0.01 µM): 0.566 | relative viability ([4]; first compound 0.03162 µM): 0.317 | relative viability ([4]; first compound 0.1 µM): 0.356

NCI-H358
relative viability ([1]; first compound 0.02 µM): 0.773 | relative viability ([1]; first compound 0.06325 µM): 0.457 | relative viability ([1]; first compound 0.2 µM): 0.652 | relative viability ([1]; first compound 0.6325 µM): 0.637 | relative viability ([1]; first compound 2 µM): 0.286 | relative viability ([2]; first compound 0.02 µM): 0.505 | relative viability ([2]; first compound 0.06325 µM): 0.342 | relative viability ([2]; first compound 0.2 µM): 0.373 | relative viability ([2]; first compound 0.6325 µM): 0.294 | relative viability ([2]; first compound 2 µM): 0.162 | relative viability ([3]; first compound 0.02 µM): 0.769 | relative viability ([3]; first compound 0.06325 µM): 0.64 | relative viability ([3]; first compound 0.2 µM): 0.699 | relative viability ([3]; first compound 0.6325 µM): 0.673 | relative viability ([3]; first compound 2 µM): 0.299 | relative viability ([4]; first compound 0.001 µM): 0.441 | relative viability ([4]; first compound 0.003162 µM): 0.349 | relative viability ([4]; first compound 0.01 µM): 0.273 | relative viability ([4]; first compound 0.03162 µM): 0.175 | relative viability ([4]; first compound 0.1 µM): 0.181

NCI-H1355
relative viability ([1]; first compound 0.02 µM): 0.981 | relative viability ([1]; first compound 0.06325 µM): 0.911 | relative viability ([1]; first compound 0.2 µM): 0.922 | relative viability ([1]; first compound 0.6325 µM): 0.992 | relative viability ([1]; first compound 2 µM): 0.761 | relative viability ([2]; first compound 0.02 µM): 1.08 | relative viability ([2]; first compound 0.06325 µM): 1.04 | relative viability ([2]; first compound 0.2 µM): 1.05 | relative viability ([2]; first compound 0.6325 µM): 1.07 | relative viability ([2]; first compound 2 µM): 0.81 | relative viability ([3]; first compound 0.02 µM): 0.798 | relative viability ([3]; first compound 0.06325 µM): 0.8 | relative viability ([3]; first compound 0.2 µM): 0.799 | relative viability ([3]; first compound 0.6325 µM): 0.891 | relative viability ([3]; first compound 2 µM): 0.678 | relative viability ([4]; first compound 0.001 µM): 0.179 | relative viability ([4]; first compound 0.003162 µM): 0.565 | relative viability ([4]; first compound 0.01 µM): 0.465 | relative viability ([4]; first compound 0.03162 µM): 0.412 | relative viability ([4]; first compound 0.1 µM): 0.44

Source: the supplement of paper PMC10307832
